Measured values reported in patent US20240245793A1, “PSD-95 INHIBITORS AND USES THEREOF” (priority 2021, published 2024).
Like-named read-outs stand apart in the source and are kept apart here. No end group written: not given here.

Columns and labels:
pMCAO mice = conditions: cited from earlier work; for neuroprotective properties: mice, pMCAO, same experimental conditions and dose (3 nmol/g)
[1] = In vitro plasma stability in undiluted pooled human plasma; format: in vitro ADME; conditions: for T1/2: 100 μM ligand, 37° C., mean ± SEM (Table 13, FIG. 10); for half-life at 100 μM: human
Method: At selected time points during the incubation, the ligands were extracted from the assay matrix by adding assay matrix to 6M Urea followed by precipitation using 20% TCA in acetone. After overnight incubation, the samples were filtered and analysed by UPLC to determine the amount of ligand remaining. LC-MS analysis was performed to confirm ligand integrity and identify cleavage sites.

plasmin [2] = target: T1, plasmin (Homo sapiens, UniProt P00747); experiment: In vitro plasmin stability assay; format: in vitro ADME
T1 construct: Tissue plasminogen factor (tPA), which generates plasmin from plasminogen
T1 sequence (P00747 581-810 limits assumed, species assumed): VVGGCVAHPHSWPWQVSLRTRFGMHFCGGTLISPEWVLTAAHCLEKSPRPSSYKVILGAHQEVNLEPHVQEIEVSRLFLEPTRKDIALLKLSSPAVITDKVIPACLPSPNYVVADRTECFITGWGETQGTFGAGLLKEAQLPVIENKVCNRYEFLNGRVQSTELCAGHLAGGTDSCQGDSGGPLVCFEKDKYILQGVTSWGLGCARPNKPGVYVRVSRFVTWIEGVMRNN
T1 sequence (P00747 97-580 partner limits assumed, species assumed): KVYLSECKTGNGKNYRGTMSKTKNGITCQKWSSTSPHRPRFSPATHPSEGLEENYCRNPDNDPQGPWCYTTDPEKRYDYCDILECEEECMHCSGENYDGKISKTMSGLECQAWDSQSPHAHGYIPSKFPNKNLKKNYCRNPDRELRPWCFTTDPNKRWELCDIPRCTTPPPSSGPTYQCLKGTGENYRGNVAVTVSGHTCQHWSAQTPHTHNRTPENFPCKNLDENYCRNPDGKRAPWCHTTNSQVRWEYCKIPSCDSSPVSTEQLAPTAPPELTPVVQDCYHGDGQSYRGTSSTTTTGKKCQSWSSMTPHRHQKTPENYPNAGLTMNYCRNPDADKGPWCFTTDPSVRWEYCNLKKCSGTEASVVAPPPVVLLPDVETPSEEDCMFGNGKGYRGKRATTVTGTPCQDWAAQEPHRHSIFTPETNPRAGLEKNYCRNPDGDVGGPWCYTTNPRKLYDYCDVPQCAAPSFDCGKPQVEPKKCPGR
Method: At selected time points during the incubation, the ligands were extracted from 80 μL of assay matrix by treatment with 80 μL of 50% acetonitrile (ACN). The samples were filtered and analysed by UPLC to determine the amount of ligand remaining. LC-MS analysis was performed to confirm ligand integrity and identify cleavage sites.

PDZ1-2 of PSD-95 = PDZ1-2 of PSD-95 (Homo sapiens, UniProt P78352); experiment: Fluorescence polarization (FP) competition assay, affinity to PDZ1-2 of PSD-95; format: binding; conditions: mean ± SEM
Chain of PDZ1-2 of PSD-95 (P78352 61-249 limits assumed): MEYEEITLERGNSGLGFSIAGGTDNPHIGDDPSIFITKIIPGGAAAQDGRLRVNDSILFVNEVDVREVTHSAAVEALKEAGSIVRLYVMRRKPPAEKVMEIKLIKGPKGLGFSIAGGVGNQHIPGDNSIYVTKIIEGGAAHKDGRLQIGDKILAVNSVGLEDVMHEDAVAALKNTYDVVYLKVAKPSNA
Method: First, a saturation binding curve was obtained to determine KD values for the interaction between a fluorescent dimeric probe and PDZ1-2 of PSD-95. Increasing concentrations of PDZ1-2 (0.015-30 nM) were added to a constant concentration of the probe (0.5 nM). The fluorescence polarization (FP) of the sample was measured at excitation/emission wavelength of 635/670 nm and the generated FP values were fitted to a one site binding model using the software GraphPad Prism. […] The FP values were fitted to a one site competition (variable slope) model in GraphPad prism. The resulting IC50 values were converted to Ki values as described previously by Nikolovska-Coleska et al., Anal. Biochem., 2004, 332, 261).

plasmin [3] = target: T1, plasmin; conditions: plasmin generated by tPA; cited from earlier work
[4] = test system: patients with ischemic stroke undergoing endovascular thrombectomy; conditions: cited from earlier work
PDZ1 and PDZ2 of PSD-95 = conditions: in vitro FP assay; read-out: Ki values towards PDZ1 and PDZ2 of PSD-95; cited from earlier work
[5] = isolated enzyme plasmin, read-out: T1/2
[6] = dimeric ligands fused to L-TAT and L-Arg9, n ≥ 3 (Table 5, FIG. 2)
[7] = NPEG4-(KETLV)2 fused to polyArg CPP-tags, n ≥ 3 (Table 7, FIG. 4)

With `CC[C@H](C)[C@H](NC(=O)CCOCCOCCOCCOCCOCCC(=O)N[C@H](C(=O)N[C@@H](CCC(=O)O)C(=O)N[C@H](C(=O)N[C@@H](CC(=O)O)C(=O)N[C@H](C(=O)O)C(C)C)[C@@H](C)O)[C@@H](C)CC)C(=O)N[C@@H](CCC(=O)O)C(=O)N[C@H](C(=O)N[C@@H](CC(=O)O)C(=O)N[C@H](C(=O)O)C(C)C)[C@@H](C)O` [Compound 1, OPEG4-(IETDV)2] as the compound, how does the neuroprotective properties (pMCAO mice) read?
The neuroprotective properties was “showed no neuroprotective properties”.

What about the reaching the brain (pMCAO mice; mouse, in vivo) of the same compound?
The reaching the brain was “did not reach the brain”.

With `CC[C@H](C)[C@H](NC(=O)CCOCCOCCN(CCOCCOCCC(=O)N[C@H](C(=O)N[C@@H](CCC(=O)O)C(=O)N[C@H](C(=O)N[C@@H](CC(=O)O)C(=O)N[C@H](C(=O)O)C(C)C)[C@@H](C)O)[C@@H](C)CC)C(=O)[C@H](CCCNC(=N)N)NC(=O)[C@H](CCCNC(=N)N)NC(=O)[C@H](CCCNC(=N)N)NC(=O)[C@H](CCC(N)=O)NC(=O)[C@H](CCCNC(=N)N)NC(=O)[C@H](CCCNC(=N)N)NC(=O)[C@H](CCCCN)NC(=O)[C@H](CCCCN)NC(=O)[C@H](CCCNC(=N)N)NC(=O)CNC(=O)[C@@H](N)Cc1ccc(O)cc1)C(=O)N[C@@H](CCC(=O)O)C(=O)N[C@H](C(=O)N[C@@H](CC(=O)O)C(=O)N[C@H](C(=O)O)C(C)C)[C@@H](C)O` [Compound 8, L-TAT-NPEG4(IETDV)2, reference compound] as the compound, how does the T1/2 [1] read?
Its T1/2 is 24 ± 0 h.

And the half-life at 100 μM (plasmin [2]; plasmin (5 μg/mL) in PBS, read-out: T1/2)?
The half-life at 100 μM was 9.05 ± 1 h.

Which half-life (plasmin [2]; [5]) does the source give for `CC(=O)N[C@@H](Cc1ccc(O)cc1)C(=O)NCC(=O)N[C@@H](CCCNC(=N)N)C(=O)N[C@@H](CCCCN)C(=O)N[C@@H](CCCCN)C(=O)N[C@@H](CCCNC(=N)N)C(=O)N[C@@H](CCCNC(=N)N)C(=O)N[C@@H](CCC(N)=O)C(=O)N[C@@H](CCCNC(=N)N)C(=O)N[C@@H](CCCNC(=N)N)C(=O)N[C@@H](CCCNC(=N)N)C(=O)N(CCOCCOCCC(=O)N[C@@H](CCCCN)C(=O)N[C@@H](CCC(=O)O)C(=O)N[C@H](C(=O)N[C@@H](CCCNC(=N)N)C(=O)N[C@H](C(=O)O)C(C)C)[C@@H](C)O)CCOCCOCCC(=O)N[C@@H](CCCCN)C(=O)N[C@@H](CCC(=O)O)C(=O)N[C@H](C(=O)N[C@@H](CCCNC(=N)N)C(=O)N[C@H](C(=O)O)C(C)C)[C@@H](C)O` [Compound 17] here?
The half-life was 6.42 ± 2.17 h.

What about the Ki (PDZ1-2 of PSD-95; [6]) of the same compound?
The Ki was 6.6 ± 0.6 nM.

Which results are given for `CC[C@H](C)[C@H](NC(=O)CCOCCOCCN(CCOCCOCCC(=O)N[C@H](C(=O)N[C@@H](CO)C(=O)N[C@H](C(=O)N[C@@H](CC(=O)O)C(=O)N[C@H](C(=O)O)C(C)C)[C@@H](C)O)[C@@H](C)CC)C(=O)[C@H](CCCNC(=N)N)NC(=O)[C@H](CCCNC(=N)N)NC(=O)[C@H](CCCNC(=N)N)NC(=O)[C@H](CCC(N)=O)NC(=O)[C@H](CCCNC(=N)N)NC(=O)[C@H](CCCNC(=N)N)NC(=O)[C@H](CCCCN)NC(=O)[C@H](CCCCN)NC(=O)[C@H](CCCNC(=N)N)NC(=O)CNC(=O)[C@H](Cc1ccc(O)cc1)NC(C)=O)C(=O)N[C@@H](CO)C(=O)N[C@H](C(=O)N[C@@H](CC(=O)O)C(=O)N[C@H](C(=O)O)C(C)C)[C@@H](C)O` [Compound 19]?
half-life (plasmin [2]; [5]): 8.9 ± 0.667 h; Ki (PDZ1-2 of PSD-95; [6]): 36.1 ± 1.8 nM

Which results are given for `CC(=O)N[C@@H](Cc1ccc(O)cc1)C(=O)NCC(=O)N[C@@H](CCCNC(=N)N)C(=O)N[C@@H](CCCCN)C(=O)N[C@@H](CCCCN)C(=O)N[C@@H](CCCNC(=N)N)C(=O)N[C@@H](CCCNC(=N)N)C(=O)N[C@@H](CCC(N)=O)C(=O)N[C@@H](CCCNC(=N)N)C(=O)N[C@@H](CCCNC(=N)N)C(=O)N[C@@H](CCCNC(=N)N)C(=O)N(CCOCCOCCC(=O)N[C@H](C(=O)N[C@@H](CCC(=O)O)C(=O)N[C@H](C(=O)N[C@H](C(=O)N[C@H](C(=O)O)C(C)C)C(C)C)[C@@H](C)O)C(C)C)CCOCCOCCC(=O)N[C@H](C(=O)N[C@@H](CCC(=O)O)C(=O)N[C@H](C(=O)N[C@H](C(=O)N[C@H](C(=O)O)C(C)C)C(C)C)[C@@H](C)O)C(C)C` [Compound 21]?
half-life (plasmin [2]; [5]): 8.87 ± 0.683 h; Ki (PDZ1-2 of PSD-95; [6]): 15.8 ± 1.6 nM

Which T1/2 [1] does the source give for `CC(=O)N[C@@H](CCCNC(=N)N)C(=O)N[C@@H](CCCNC(=N)N)C(=O)N[C@@H](CCCNC(=N)N)C(=O)N[C@@H](CCCNC(=N)N)C(=O)N[C@@H](CCCNC(=N)N)C(=O)N[C@@H](CCCNC(=N)N)C(=O)N[C@@H](CCCNC(=N)N)C(=O)N[C@@H](CCCNC(=N)N)C(=O)N[C@@H](CCCNC(=N)N)C(=O)N(CCOCCOCCC(=O)N[C@@H](CCCCN)C(=O)N[C@@H](CCC(=O)O)C(=O)N[C@H](C(=O)N[C@@H](CC(C)C)C(=O)N[C@H](C(=O)O)C(C)C)[C@@H](C)O)CCOCCOCCC(=O)N[C@@H](CCCCN)C(=O)N[C@@H](CCC(=O)O)C(=O)N[C@H](C(=O)N[C@@H](CC(C)C)C(=O)N[C@H](C(=O)O)C(C)C)[C@@H](C)O` [Compound 23] here?
Its T1/2 is 24 ± 0 h.

What about the half-life at 100 μM (plasmin [2]; isolated enzyme plasmin) of the same compound?
The half-life at 100 μM was 43.6 ± 4.6 h.

For `CC[C@H](C)[C@H](NC(=O)CCOCCOCCN(CCOCCOCCC(=O)N[C@H](C(=O)N[C@@H](CCC(=O)O)C(=O)N[C@H](C(=O)N[C@@H](CC(=O)O)C(=O)N[C@H](C(=O)O)C(C)C)[C@@H](C)O)[C@@H](C)CC)C(=O)[C@H](CCCNC(=N)N)NC(=O)[C@H](CCCNC(=N)N)NC(=O)[C@H](CCCNC(=N)N)NC(=O)[C@H](CCCNC(=N)N)NC(=O)[C@H](CCCNC(=N)N)NC(=O)[C@H](CCCNC(=N)N)NC(=O)[C@H](CCCNC(=N)N)NC(=O)[C@H](CCCNC(=N)N)NC(=O)[C@H](CCCNC(=N)N)NC(C)=O)C(=O)N[C@@H](CCC(=O)O)C(=O)N[C@H](C(=O)N[C@@H](CC(=O)O)C(=O)N[C@H](C(=O)O)C(C)C)[C@@H](C)O` [Compound 35], which T1/2 [1] is on record?
Its T1/2 is 24 ± 0 h.

And the half-life at 100 μM (plasmin [2])?
The half-life at 100 μM was 24.9 ± 1.9 h.

And the half-life at 100 μM (plasmin [2]; isolated enzyme plasmin)?
Its half-life at 100 μM is 24.9 ± 1.9 h.

With `CC(=O)N[C@@H](CCCNC(=N)N)C(=O)N[C@@H](CCCNC(=N)N)C(=O)N[C@@H](CCCNC(=N)N)C(=O)N[C@@H](CCCNC(=N)N)C(=O)N[C@@H](CCCNC(=N)N)C(=O)N[C@@H](CCCNC(=N)N)C(=O)N[C@@H](CCCNC(=N)N)C(=O)N(CCOCCOCCC(=O)N[C@@H](CCCCN)C(=O)N[C@@H](CCC(=O)O)C(=O)N[C@H](C(=O)N[C@@H](CC(C)C)C(=O)N[C@H](C(=O)O)C(C)C)[C@@H](C)O)CCOCCOCCC(=O)N[C@@H](CCCCN)C(=O)N[C@@H](CCC(=O)O)C(=O)N[C@H](C(=O)N[C@@H](CC(C)C)C(=O)N[C@H](C(=O)O)C(C)C)[C@@H](C)O` [Compound 67] as the compound, how does the T1/2 [1] read?
The T1/2 was 24 ± 0 h.

For `CC(=O)N[C@@H](CCCNC(=N)N)C(=O)N[C@@H](CCCNC(=N)N)C(=O)N[C@@H](CCCNC(=N)N)C(=O)N[C@@H](CCCNC(=N)N)C(=O)N[C@@H](CCCNC(=N)N)C(=O)N[C@@H](CCCNC(=N)N)C(=O)N(CCOCCOCCC(=O)N[C@@H](CCCCN)C(=O)N[C@@H](CCC(=O)O)C(=O)N[C@H](C(=O)N[C@@H](CC(C)C)C(=O)N[C@H](C(=O)O)C(C)C)[C@@H](C)O)CCOCCOCCC(=O)N[C@@H](CCCCN)C(=O)N[C@@H](CCC(=O)O)C(=O)N[C@H](C(=O)N[C@@H](CC(C)C)C(=O)N[C@H](C(=O)O)C(C)C)[C@@H](C)O` [Compound 69], which T1/2 [1] is on record?
The T1/2 was 24 ± 0 h.

What about the Ki (PDZ1-2 of PSD-95; [7]) of the same compound?
The Ki was 8.6 ± 0.3 nM.

With `CC(=O)N[C@@H](CCCNC(=N)N)C(=O)N[C@@H](CCCNC(=N)N)C(=O)N[C@@H](CCCNC(=N)N)C(=O)N[C@@H](CCCNC(=N)N)C(=O)N[C@@H](CCCNC(=N)N)C(=O)N(CCOCCOCCC(=O)N[C@@H](CCCCN)C(=O)N[C@@H](CCC(=O)O)C(=O)N[C@H](C(=O)N[C@@H](CC(C)C)C(=O)N[C@H](C(=O)O)C(C)C)[C@@H](C)O)CCOCCOCCC(=O)N[C@@H](CCCCN)C(=O)N[C@@H](CCC(=O)O)C(=O)N[C@H](C(=O)N[C@@H](CC(C)C)C(=O)N[C@H](C(=O)O)C(C)C)[C@@H](C)O` [Compound 71] as the compound, how does the half-life at 100 μM [1] read?
Its half-life at 100 μM is 21.1 ± 2.3 h.

With `CC(=O)N[C@@H](CCCNC(=N)N)C(=O)N[C@@H](CCCNC(=N)N)C(=O)N[C@@H](CCCNC(=N)N)C(=O)N[C@@H](CCCNC(=N)N)C(=O)N(CCOCCOCCC(=O)N[C@@H](CCCCN)C(=O)N[C@@H](CCC(=O)O)C(=O)N[C@H](C(=O)N[C@@H](CC(C)C)C(=O)N[C@H](C(=O)O)C(C)C)[C@@H](C)O)CCOCCOCCC(=O)N[C@@H](CCCCN)C(=O)N[C@@H](CCC(=O)O)C(=O)N[C@H](C(=O)N[C@@H](CC(C)C)C(=O)N[C@H](C(=O)O)C(C)C)[C@@H](C)O` [Compound 73] as the compound, how does the half-life at 100 μM [1] read?
Its half-life at 100 μM is 15.2 ± 3.6 h.

And the Ki (PDZ1-2 of PSD-95; [7])?
Its Ki is 11.1 ± 0.9 nM.

With YGRKKRRQRRRKLSSIESDV [nerinetide] as the compound, how does the cleavage by plasmin (plasmin [3]) read?
The cleavage by plasmin was “cleaves nerinetide”.

And the neuroprotective properties (pMCAO mice)?
Its neuroprotective properties is “did not show significant neuroprotective properties”.

What about the clinical effect ([4]; group not receiving alteplase) of the same compound?
The clinical effect was “improved functional outcomes, reduced mortality, and reduced infarction volumes”.

What about the clinical effect ([4]; patients receiving alteplase) of the same compound?
The clinical effect was “not effective”.

What about the Ki (PDZ1 and PDZ2 of PSD-95) of the same compound?
The Ki was 5000 to 10000 nM.
